Results from paper PMC8558867, “Development of BromoTag: A “Bump-and-Hole”–PROTAC System to Induce Potent, Rapid, and Selective Degradation of Tagged Target Proteins” (Journal of Medicinal Chemistry, 2021).
Like-named read-outs stand apart in the source and are kept apart here.

What was measured:
In vivo PK profiling = settings: male, C57BL/6, mouse, plasma, mice
Procedure: PK profiling was outsourced and undertaken by Shanghai ChemPartner Co., Ltd. All animal experiments performed were conducted in compliance with the Institutional Animal Care and Use Committee (IACUC) and the Office of Laboratory Animal Welfare (OLAW) guidelines. Six- to eight-week-old C57BL/6 male mice purchased from Jihui Laboratory Animal Co. LTD were used in the study. […] The animals were restrained manually at the designated time points (0.083, 0.25, 0.5, 1, 2, 4, and 8 h); approximately, 110 μL of blood sample was collected via facial vein into K2EDTA tubes. Three mice per time point were used, resulting in a […]. The blood sample was put on ice and centrifuged at 2000g for 5 min to obtain the plasma sample within 15 min. The plasma samples were stored at approximately −70 °C until analysis. A 30 μL aliquot of plasma was added with 200 μL of internal standard (diclofenac, 40 ng/mL) in 1% formic acid in MeCN. The mixture was then vortexed for 1 min and then centrifuged for 10 min at 5800 rpm. The supernatant (100 μL) was transferred to a new plate. The solvent (0.5 μL) was injected to LC–MS/MS. LC–MS/MS instrument used: SCIEX LC–MS/MS-45 (Triple Quad 6500+). Data was analyzed by WinNonLin and Microsoft Excel.

HEK293 cells = assay: CellTiter-Glo 2.0 cell viability assay, HEK293; assay type: cell-based, human; settings: HEK293, up to 1–10 μM
VHL (VCB protein) = molecular target: T1, VHL (VCB protein) (Homo sapiens, UniProt P40337); assay: FP competitive binding assay, binary binding; settings: compound alone; mean ±S.E.M., N = 4; read-out: binary affinity to VHL Kd
T1 construct: N-terminally His6-tagged VHL (54–213); His6 (N, cleaved yes); made in house; host or cells: E. coli

BromoTag-Brd2 [1] = assay: Recovery (washout) assay; assay type: cell-based, human
Procedure: This was performed in the genotype-verified heterozygous BromoTag-Brd2 HEK293 cell line. Heterozygous BromoTag-Brd2 HEK293 cells were plated at a density of 5 × 10^5 cells per well of a six-well plate a day before initiating the recovery assay. […] During treatment, the cells were kept at 37 °C, 5% CO2, and 95% humidity.
(§1) All cells were harvested on ice with RIPA lysis and extraction buffer (Thermo Fisher Scientific, 89901) supplemented with protease inhibitor cocktail (Merck, 11697498001) and Benzonase Nuclease (Sigma, E1014) before being stored at −20 °C prior to use. Total protein quantity was determined using the BCA protein assay (#23225, Pierce, Rockford, Illinois). The protein concentration was determined using the BCA assay (Thermo Fisher Scientific, 23225). The samples were then prepared and loaded onto NuPAGE 4–12% bis–tris Midi gels (Thermo Fisher Scientific, WG1403A), followed by the transfer of proteins onto nitrocellulose membranes (EMD Millipore). The membranes were blocked for 1 h prior to incubation with the primary antibodies using 5% Milk TBST. […] All western blots were analyzed for band intensities using Image Lab from Bio-Rad (LI-COR, Biosciences). The data extracted from these blots were then plotted and analyzed using Prism (v. 8.2.0, GraphPad).

22RV1 cells = assay: CellTiter-Glo 2.0 cell viability assay, 22RV1; assay type: cell-based, human; settings: 22RV1, up to 1–10 μM
Plasma stability = assay type: in vitro ADME; settings: mouse plasma, 37 °C, over 1 h
Procedure: Plasma stability studies were outsourced and undertaken by Shanghai ChemPartner Co., Ltd. Buffer preparation: a solution of 0.05 M sodium phosphate and 0.07 M NaCl buffer at pH 7.4 was made by dissolving 14.505 g/L of Na2HPO4·12H2O, 1.483 g/L of NaH2PO4·2H2O, and 4.095 g/L of NaCl in deionized water, and the pH was adjusted with phosphoric acid. Plasma preparation: frozen mouse plasma was thawed by placing at 37 °C quickly. The thawed plasma was centrifuged at 3000 rpm for 8 min to remove clots, and the supernatant was pooled to be used as the plasma in the experiment. The plasma (pH 7.4–8.0) was stored on ice until used. […] Plasma and spiking solutions were prewarmed at 37 °C for 5 min, and then 10 μL of prewarmed spiking solution B was added into the wells designated for all the time points (5, 15, 30, 45, and 60 min). For 0 min, 400 μL of acetonitrile-containing internal standards (imipramine, glipizide) was added to the wells of a 0 min plate, and then 90 μL of plasma was added. For the time points (0, 5, 15, 30, 45, and 60 min), 90 μL of prewarmed plasma was added at the initial stage. At 5, 15, 30, 45, and 60 min, 400 μL of acetonitrile containing the internal standard (imipramine, glipizide) was added to the wells of the corresponding plates to stop the reaction. […] Data was analyzed with Microsoft Excel.

BromoTag-Brd2 [2] = assay: Competition assay (inhibitor pretreatment, western blot); assay type: cell-based, human; settings: 200 nM 46 for 3 h after 1 h pretreatment
Procedure: Heterozygous BromoTag-Brd2 HEK293 cells were plated in six-well plates at a density of 5 × 10^5 cells per well in 2 mL DMEM. […] After 3 h, the cells were harvested for subsequent processing via western blot. Each treatment was performed in tandem to produce two technical repeats per condition. The six-well plates were incubated for 4 h at 37 °C and 5% CO2 throughout the experiment.
as §1

Q: Which AUC(0-t) at 8 h (In vivo PK profiling; IV (5 mg/kg)) does the source give for CC[C@@H](C(=O)OCCOCCOCCOCC(=O)N[C@H](C(=O)N1C[C@H](O)C[C@H]1C(=O)NCc1ccc(-c2scnc2C)cc1)C(C)(C)C)[C@@H]1N=C(c2ccc(Cl)cc2)c2c(sc(C)c2C)-n2c(C)nnc21 [AGB1 (46), (S)-13-((2S,4R)-4-Hydroxy-2-((4-(4-methylthiazol-5-yl)benzyl)carbamoyl)pyrrolidine-1-carbonyl)-14,14-dimethyl-11-oxo-3,6,9-trioxa-12-azapentadecyl (R)-2-((S)-4-(4-chlorophenyl)-2,3,9-trimethyl-6H-thieno[3,2-f][1,2,4]triazolo[4,3-a][1,4]diazepin-6-yl)butanoate] here?
A: Its AUC(0-t) at 8 h is 1.71 µM·h.

Q: And the MRT inf (In vivo PK profiling; IV (5 mg/kg))?
A: Its MRT inf is 23.4 min.

Q: What about the clearance at 8 h (In vivo PK profiling; IV (5 mg/kg)) of the same molecule?
A: Its clearance at 8 h is 47.2 mL/min/kg.

Q: And the half-life at 8 h (In vivo PK profiling; IV (5 mg/kg))?
A: The half-life at 8 h was 89.4 min.

Q: What about the AUC(0-inf) at 8 h (In vivo PK profiling; IV (5 mg/kg), read-out: AUCinf) of the same molecule?
A: Its AUC(0-inf) at 8 h is 1.72 µM·h.

Q: And the Vd at 8 h (In vivo PK profiling; IV (5 mg/kg), read-out: Vss)?
A: Its Vd at 8 h is 1.1 L/kg.

Q: And the AUC(0-t) at 8 h (In vivo PK profiling; SC (5 mg/kg))?
A: The AUC(0-t) at 8 h was 2.33 µM·h.

Q: And the Cmax at 8 h (In vivo PK profiling; SC (5 mg/kg))?
A: The Cmax at 8 h was 700 nM.

Q: What about the Tmax at 8 h (In vivo PK profiling; SC (5 mg/kg)) of the same molecule?
A: The Tmax at 8 h was 30 min.

Q: What about the half-life at 8 h (In vivo PK profiling; SC (5 mg/kg)) of the same molecule?
A: The half-life at 8 h was 99 min.

Q: And the AUC(0-inf) at 8 h (In vivo PK profiling; SC (5 mg/kg), read-out: AUCinf (μ; M·h))?
A: Its AUC(0-inf) at 8 h is 2.4 µM·h.

Q: And the cytotoxicity (HEK293 cells)?
A: Its cytotoxicity is “lack of cytotoxicity”.

Q: What about the Kd (VHL (VCB protein)) of the same molecule?
A: The Kd was 125 nM.

Q: What about the “time after washout at which BromoTag-Brd2 protein levels recover” value (BromoTag-Brd2 [1]; 200 nM for 3 h, then washout) of the same molecule?
A: The value was 24 h.

Q: And the “on-target degradation without washout” value (BromoTag-Brd2 [1]; 200 nM, no washout)?
A: The value was “complete and durable on-target degradation for up to 72 h”.

Q: What about the cytotoxicity (22RV1 cells) of the same molecule?
A: Its cytotoxicity is “lack of cytotoxicity”.

Q: And the “plasma stability: levels remaining” value (Plasma stability)?
A: Its value is “no significant changes”.

Q: What about the “on-target degradation activity upon pretreatment with MLN4924 or VH298” value (BromoTag-Brd2 [2]; 3 μM MLN4924, 10 μM VH298) of the same molecule?
A: The value was “completely abrogated”.

Q: And the “on-target degradation activity upon pretreatment with MG132” value (BromoTag-Brd2 [2]; 50 μM MG132)?
A: Its value is “blocked”.
